Experimental data as given in article PMC3447753, “Relacin, a Novel Antibacterial Agent Targeting the Stringent Response” (PLoS Pathogens, 2012).

Biological target: T1, Rel/Spo (D. radiodurans) (Deinococcus radiodurans, UniProt Q9RTC7)
T1 construct: gene DR_1838; full length, His-tagged (anti-His detection), expressed in E. coli BL21 CodonPlus
T1 sequence (Q9RTC7 1-787): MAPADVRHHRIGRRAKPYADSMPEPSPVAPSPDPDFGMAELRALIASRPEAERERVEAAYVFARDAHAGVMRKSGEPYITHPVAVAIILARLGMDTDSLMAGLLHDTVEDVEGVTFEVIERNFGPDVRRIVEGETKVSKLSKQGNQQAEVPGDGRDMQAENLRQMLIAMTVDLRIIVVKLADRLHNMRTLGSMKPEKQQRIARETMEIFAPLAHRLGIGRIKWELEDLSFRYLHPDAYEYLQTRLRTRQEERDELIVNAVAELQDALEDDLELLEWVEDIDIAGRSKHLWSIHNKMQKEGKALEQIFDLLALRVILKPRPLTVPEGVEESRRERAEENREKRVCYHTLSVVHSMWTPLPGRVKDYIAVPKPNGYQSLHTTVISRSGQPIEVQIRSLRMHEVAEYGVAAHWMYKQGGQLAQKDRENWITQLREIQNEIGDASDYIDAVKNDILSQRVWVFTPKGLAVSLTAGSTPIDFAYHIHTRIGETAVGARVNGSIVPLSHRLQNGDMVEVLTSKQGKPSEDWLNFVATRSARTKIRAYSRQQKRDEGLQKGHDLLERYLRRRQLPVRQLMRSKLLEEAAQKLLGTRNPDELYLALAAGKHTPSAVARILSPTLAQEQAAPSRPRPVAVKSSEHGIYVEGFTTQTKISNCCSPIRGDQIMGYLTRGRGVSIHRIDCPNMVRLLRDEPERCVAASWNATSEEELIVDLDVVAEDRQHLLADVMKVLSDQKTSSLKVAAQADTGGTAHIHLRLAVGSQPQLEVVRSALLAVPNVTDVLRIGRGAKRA
Assay: (p)ppGpp synthesis from alpha-32P-GTP, PEI-TLC autoradiography
Format: biochemical
Conditions: 0.5 mM GTP, 4 mM ATP, 10 mM MgCl2, pH 7.4, isolated ribosomes; inhibitor concentration only in figure

% inhibition at highest Relacin concentration: ~ 80%
SMILES: CC(C)C(=O)Nc1nc2c(ncn2[C@H]2C[C@H](OC(=O)NCC(=O)NCC(=O)O)[C@@H](COC(=O)NCC(=O)NCC(=O)O)O2)c(=O)[nH]1 [Relacin]
